Series [1] has as its system TNF-α. Nature of the series: TNF-α production by human peripheral blood mononuclear cells, culture supernatant (ELISA). The class given is cell-based. The method, then: Cells: Peripheral blood mononuclear cells obtained from healthy individuals. The cells were separated by a conventional method lymphoprep) and suspended in RMPI 1640 containing 5% human serum.
Stimulation of cytokine-release from human mononuclear cells: Human peripheral blood mononuclear cells from Danish donors were suspended in 1-10% (v/v) human serum in RPMI 1640 and adjusted to 2×10^6 cells per ml. 0.1 ml volumes were then dispensed into wells of 96-well microtiter plates. […] In some experiments cells were preincubated with drugs for 2 hrs before addition of stimulation antigens. The cultures were incubated overnight for TNF-α and IL-6 assays.
Supernatants were collected and assayed for TNF-α, IL-1α and IL-6 by ELISA procedures (Jakobsen et al., 1993, Fomsgaard et al., 1988, Hansen et al., 1991) with the following modifications. ELISA Maxisorp plates (Nunc, Roskilde, Denmark) were coated for 24 hrs at 4 C with 100 μl per well of 2.5 μg/ml rabbit polyclonal IgG to human recombinant TNF, IL-1α or IL-6 in 100 mM sodiumhydrogencarbonate. Non-attached sites were blocked for 1 h by 200 μl per well of 2% human serum slbumin in PBS (1 h at 37° C.), and the wells were washed 4 times in 2.5% NaCl, 0.1% Tween 20 (Merck, Darmstadt, Germany). This washing procedure was done after each of the following incubating steps:
1) 100 μl culture supernatants made to 50% (v/v) in incubation buffer (4% (v/v) normal rabbit serum, DAKO code X902), 1% polyethylene glycol (MW 6,000), 2.5% NaCl, 0.1% Tween 20 in phosphate buffered saline (PBS) were incubated 2 hrs at 37° C., dilutions of native as well as recombinant cytokine standards in the same incubation buffer were asssayed in parallel with the tested supernatants,
2) 100 μl per well of biotinilated rabbit antibodies to recombinant TNF-α, IL-1α or IL-6 (1.5 μg/ml in 0.5% human serum albumin, 0.1% Tween 20 in PBS) were added at 37° for 2 hrs,
3) […] per well of a 1:1000 dilution of streptavidin-peroxidase (Amersham, UK), at room temperature for 30 min.
Enzyme activities were quantitated after addition of 100 μl per well of 0.67 mg/ml 1,2-phenyldiamine hydrochloride (DAKO) dissolved in 100 mM citric acid-phosphate buffer, pH 5.0 containing 0.015% (v/v) H2O2. The reactions were stopped by adding 50 μl per well of 2.5 M H2SO4, and the optical densities are measured in an ELISA scanner at 490 nm against a test reference at 620 nm.
Assay: The compounds were prepared as stock solution at a concentration of 1 mg/ml in medium containing 10% DMSO. The dilutions were made in medium. The cells were stimulated with either SPAG (a malaria antigen TNF-inducer) or bacterial LPS. The supernatant of cell cultures were assayed for TNF-α using a commercial ELISA kit.
On the technique in general: In an ELISA, binding on a coated surface is turned into a signal by an enzyme label.

Series [2] has as its system Helicobacter pylori. Nature of the series: Helicobacter species Assay (agar plate, MIC). The class given is cell-based. The note with it: for MIC: Helicobacter pylori, 20 strains of H. pylori, agar plate, 72 hours, read-out: MIC; for No. strains inhibited/No. strains tested: at the MIC of the same line. On the procedure: 20 strains of Helicobacter pylori were used in an agar plate assay. The compounds were incorporated in the agar plates at different concentrations as described in the examples and were then inoculated with different strains of Helicobacter pylori followed by incubation in a microaerophilic atmosphere at 37° C. for 72 hours. The number of colony-forming units (CFU) were counted after the incubation period. The MIC values were determined as the minimal concentration required to inhibit growth of the bacteria.
(§1) Stock solutions were made at a concentration of 1 mg/ml by dissolving 1 mg of each compound in 100 μl DMSO (dimethylsulfoxide) followed by addition of 900 μl of heat-inactivated fetal claf serum (HFCS). These stock solutions were diluted with HFCS to make solutions having the following concentrations: 320 μg/ml, 160 μg/ml, 80 μg/ml, 40 μg/ml and 20 μg/ml. Dilution rows were made with 3 ml aliquots in vials containing the compounds in the following final test concentrations: 16 μg/ml, 8 μg/ml, 4 μg/ml, 2 μg/ml and 1 μg/ml. As control was used DMSO-HFCS containing an amount of DMSO equal to the amount of test compound in the solution with 320 μg/ml compound.
Bacteria: 20 strains of Helicobacter pylori were used in an agar plate assay. The compounds were incorporated in the agar plates at different concentrations and then they were inoculated with different strains of Helicobacter pylori followed by incubation at microaerophilic atmosphere at 37° C. in 72 hours. The number of colony-forming units (CFU) were counted after the incubation period. The MIC values were determined as the minimal concentration required to inhibit growth of the bacteria.
as §1, with “concentrations: 2560 μg/ml, 1280 μg/ml, 640 μg/ml,” for “concentrations:”, “160 µg/ml and” for “160 μg/ml,”, “80” for “80 μg/ml, 40 μg/ml and 20”, “concentrations: 128 μg/ml, 64 μg/ml, 32 μg/ml, 12” for “concentrations: 16”, “8” for “8 μg/ml, 4 μg/ml, 2”, “and 4” for “and 1”
Bacteria: 20 strains of Helicobacter pylori were used in an agar plate assay. The same method as described above under Experiment A was employed and MIC values were determined.

The test system of series [3] is human lymphocytes. Nature of the series: Lymphocyte Proliferation Assay. The series is classed as cell-based. Conditions: Lymphocyte; PHA provoked proliferation of human lymphocytes; read-out: Lymphocytes IC50 ± SD. On the procedure:
Human blood mononuclear cells (BMNC) from heparinized blood were isolated by metrizoate sodium-Ficoll density gradient centrifugation, washed 3 times in RPMI 1640 medium supplemented with 5% FCS and with 400 IU of penicillin plus 400 μg/ml streptomycin. BMNC were resuspended in the medium and cultured in triplicate, 0.63×10^5/ml and 160 μl per vial, in round-bottom microtiter plates with 20 μl of various concentrations of the test compound. Immediately prior to incubation, optimum concentrations of the mitogen phytohaemagglutinin (PHA) and the antigen purified protein derivative of tuberculin (PPD) were added to the cultures in a volume of 20 μl. Unstimulated control cultures were always included. Cultures were incubated for 3 or 7 days. The degree of lymphocyte proliferation was estimated by ^3H-thymidine (1 μCi per well) addition 24 h before the cells were harvested on glass fiber filters by means of a harvesting machine), and ^3H-thymidine incorporation was measured in a liquid scintillation counter. For each set of triplicate values, the median was recorded. Unstimulated cultures were always included as controls.

Series [4] deals with Plasmodium falciparum. Nature of the series: Plasmodium falciparum Assay. The class given is cell-based. Conditions: Plasmodium falciparum; 3-H-hypoxanthine incorporation, 48 hours; read-out: Plasmodium IC50 ± SD. On the procedure:
The experiments in which compounds were tested for their ability to inhibit parasite growth were performed by a modification of the method originally described by Jensen et al. (1982). 50 μl of parasitized erythrocytes (parasitemia approximately 1%) in a concentration of 5×10^8/ml and 50 μl of RPMI medium containing different concentrations of the test compound was added to each well of a 96 well flat-bottomed microtiter plate. The cultures were then incubated for 48 hours, 24 hours before termination of the culture adding 20 μl of 3-H-hypoxanthine (40 uCi/ml) was added to each well. The cultures were then harvested onto glass fiber filters using a Skatron cell harvester, and the incorporation of 3-H-hypoxanthine into the DNA of dividing parasites was determined by liquid scintillation spectrometry. Control cultures with uninfected erythrocytes and infected erythrocytes in RPMI medium without test compounds were always performed in parallel to the test cultures. In some experiments thin smears of parasite cultures were stained by Giemsa and examined under microscope (×1000). The test compounds described above, were diluted in RPMI medium immediately before use. In the experiments, chloroquine phosphate was used as a positive control as a drug known to inhibit parasite growth.

Series [5] has as its system Leishmania promastigotes. Nature of the series: Leishmania promastigotes Assay. Conditions: Leishmania; promastigotes, 3H-thymidine uptake; read-out: Leishmania IC50 ± SD. The class given is cell-based. On the procedure: A WHO reference vaccine strain of L. major originally isolated from a patient in Iran and a Kenyan strain of L. donovani (MHOM(/KE/85/NLB 274) were cultured in medium 199 containing 0.02 mg/ml gentamycin, 25 mM Hepes, 4 mM L-glutamine, and 20% heat inactivated fetal calf serum (FCS). Incubation was carried out at 26° C. Promastigotes were harvested on day 3 and 6 of the culture and used for the parasite growth inhibition.
The effect of the test compounds on promastigotes was assessed by a method similar to the one described by Pearson et al., by incubating promastigotes (3×10^6/ml) at 26° C. for 2 hrs in the presence of a given compound or the medium alone in 96 wells flat bottom microtiter plates. Following incubation, 100 μCi of 3H-thymidine was added to each well and further incubated for 18 hrs. Promastigotes were then harvested on filter paper by means of a cell harvester, extensively washed with distilled water and counted in a scintillation counter. The promastigotes were also counted microscopically and their flagellar motility was assessed.

Where [6] appears, read: Experiment 1, LPS, 12.5 μg/ml, Control 1.17.
Setting [7] is: Experiment 1, LPS, 25 μg/ml, Control 1.17.
Where [8] appears, read: Experiment 1, LPS, 50 μg/ml, Control 1.17.
The mark [9] stands for this setting: Experiment 1, LPS, 100 μg/ml, Control 1.17.
Setting [10] is: Experiment 1, SPAG, 12.5 μg/ml, Control 3.73.
Setting [11] is: Experiment 1, SPAG, 25 μg/ml, Control 3.73.
Where [12] appears, read: Experiment 1, SPAG, 50 μg/ml, Control 3.73.
[13] abbreviates: Experiment 1, SPAG, 100 μg/ml, Control 3.73.

The structures appear in SMILES notation. Values after ≈ are worked out from the molar mass of the structure shown.

The MIC is the lowest concentration found to suppress growth. In the case of `CCCCOc1ccccc1C(=O)/C=C/c1ccc(OC)cc1OC` [PH142, 2′-butoxy-2,4-dimethoxychalcone], the “TNF-α production (OD values)” value in series [1] (setting [6]) worked out at 0.26 OD; in series [1] (setting [7]) it was 0.24 OD; in series [1] (setting [8]), 0.18 OD; in series [1] (setting [9]) it was 0.10 OD; in series [1] (setting [10]) it was 0.02 OD; in series [1] (setting [11]), 0.02 OD. In addition, the “TNF-α production (OD values)” value came out at 0.02 OD in series [1] (setting [12]); 0.02 OD in series [1] (setting [13]); 1.58 OD in series [1] (Experiment 2, LPS, 1.562 μg/ml, Control 2.06); 1.00 OD in series [1] (Experiment 2, LPS, 3.125 μg/ml, Control 2.06); 0.65 OD in series [1] (Experiment 2, LPS, 6.25 μg/ml, Control 2.06); 0.16 OD in series [1] (Experiment 2, LPS, 12.5 μg/ml, Control 2.06). Moreover, the “TNF-α production (OD values)” value came to 1.86 OD in series [1] (Experiment 2, SPAG, 1.562 μg/ml, Control 2.28); 0.55 OD in series [1] (Experiment 2, SPAG, 3.125 μg/ml, Control 2.28); 0.04 OD in series [1] (Experiment 2, SPAG, 6.25 μg/ml, Control 2.28); 0.02 OD in series [1] (Experiment 2, SPAG, 12.5 μg/ml, Control 2.28). For the same compound, in series [2], the MIC was 128 µg/mL (≈ 376 µM). In series [2], the “No. strains inhibited/No. strains tested” value is given as 2/20.
As usually defined, the melting point is the temperature, or range, at which the solid turns liquid. Regarding `CN(C)c1ccc(/C=C/C(=O)c2ccc([N+](=O)[O-])cc2)cc1` [4′-NO2-4-N(CH3)2, 4-dimethylamino-4′-nitrochalcone], the melting point was in the range of 214 to 214.7 °C.
In general, IC50 refers to the concentration that gives 50% inhibition. Turning to `CCCCOc1cccc(C(=O)/C=C/c2ccc(OC)cc2OC)c1` [PH81, 3′-butoxy-2,4-dimethoxychalcone], the figures for the IC50 in series [3], in series [4] and in series [5] were 65 ± 4 µM, 16 µM and 20 ± 3 µM, respectively. Also, in series [2], the MIC is 16 µg/mL (≈ 47 µM). In series [2], the “No. strains inhibited/No. strains tested” value was 5/20.
The compound `COc1cc(/C=C/C(=O)c2ccc(OC)c(OC)c2OC)cc(OC)c1` [2′,3′,4′,3,5-OCH3, 3,5,2′,3′,4′-pentamethoxychalcone] came in with a melting point of 111.6 to 112.5 °C. Moreover, in series [3], the IC50 worked out at 8.7 ± 0.5 µM. Moreover, the IC50 in series [5] was determined as 8.3 ± 0.9 µM.
`COc1cc(/C=C/C(=O)c2ccc(N(C)C)cc2)cc(OC)c1` [PH32, 4′-dimethylamino-3,5-dimethoxychalcone]: in series [1], the “inhibitory effect on TNF-α production” value is “no or very little inhibitory effect”. Moreover, the “TNF-α production (OD values)” value in series [1] (setting [6]) stood at 1.23 OD; in series [1] (setting [7]) it was 1.55 OD; in series [1] (setting [8]), 1.28 OD; in series [1] (setting [9]) it was 0.94 OD; in series [1] (setting [10]), 3.90 OD; in series [1] (setting [11]) it was 2.26 OD. In addition, the “TNF-α production (OD values)” value is recorded as 1.74 OD in series [1] (setting [12]) and 0.75 OD in series [1] (setting [13]). The IC50 in series [4] turned out to be 17 µM. Moreover, the MIC in series [2] was greater than 128 µg/mL. Besides, in series [2], the “No. strains inhibited/No. strains tested” value is 0/20.
With `COc1ccc(/C=C/C(=O)c2cccc([N+](=O)[O-])c2)c(OC)c1` [3′-NO2-2,4-OCH3, 2,4-dimethoxy-3′-nitrochalcone], the melting point lay in the range of 88.1 to 88.7 °C. For the same compound, the IC50 in series [3] came to 18 ± 2 µM. The IC50 in series [5] came to 8.6 µM.
The corresponding values for `COc1ccc(C(=O)/C=C/c2ccccc2F)c(OC)c1OC` [2-F-2′,3′,4′-OCH3, 2-fluoro-2′,3′,4′-trimethoxychalcone] are 75 to 75.8 °C, 11 ± 1 µM and 15 ± 1 µM.

Values taken from patent US20030065039A1, “Biologically active 1,3-bis-aromatic-prop-2-en-1-ones, 1,3-bis-aromatic-propan-1-ones, and 1,3-bis-aromatic-prop-2-yn-1-ones” (Statens Serum Institute, priority 1997, published 2003).
